Measurements from publication PMC12228687, “Harnessing protein language model for structure-based discovery of highly efficient and robust PET hydrolases” (Nature Communications, 2025).

Target: T1, FastPETase (mutant derived from IsPETase) (Pseudideonella sakaiensis, UniProt A0A0K8P6T7, S121E/D186H/R224Q/N233K/R280A, form not given)
T1 construct: gene ISF6_4831; engineered variant FastPETase; construct not described in the main text
Assay: p-nitrophenol release at […] nm, Michaelis-Menten nonlinear fit
Assay type: biochemical
Details: 10 mM potassium phosphate pH 8.0 (stock buffer), 50 °C, 3 min, 0.5 µg/mL enzyme, 0.2-1.8 mM pNPB

T1 sequence (A0A0K8P6T7 28-290 S121E/D186H/R224Q/N233K/R280A, form open): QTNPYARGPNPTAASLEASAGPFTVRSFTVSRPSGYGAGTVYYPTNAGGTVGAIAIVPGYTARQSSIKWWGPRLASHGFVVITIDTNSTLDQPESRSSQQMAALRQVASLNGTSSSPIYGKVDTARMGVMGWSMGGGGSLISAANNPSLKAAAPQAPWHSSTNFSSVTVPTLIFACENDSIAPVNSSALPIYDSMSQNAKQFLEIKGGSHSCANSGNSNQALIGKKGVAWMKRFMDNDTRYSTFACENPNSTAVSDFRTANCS

Km: 1570 ± 416 µM
Compound: CCCC(=O)Oc1ccc([N+](=O)[O-])cc1 [p-nitrophenyl butyrate]
